# Reference: the NIST ThermoML archive (doi:10.1016/j.fluid.2014.09.014)
# ± gives the expanded uncertainty stated by the source.
# Experiment: refractive index (other wavelength) (dimensionless); xn = mol fraction of the nth substance listed
# Settings: 101 kPa, Liquid, Standard Abbe refractometry
compound,measurement,setting,value
CC(C)OC(C)C [diisopropyl ether] + CC(C)O,refractive index,"298.15 K, Wavelength=644 nm, x1 = 0.9547",1.3643 ± 0.00043
same,refractive index,"298.15 K, Wavelength=644 nm, x1 = 0.973",1.364 ± 0.00043
same,refractive index,"298.15 K, Wavelength=644 nm, x1 = 0.9771",1.36393 ± 0.00043
same,refractive index,"298.15 K, Wavelength=644 nm, x1 = 1",1.36373 ± 0.00043
same,refractive index,"298.15 K, Wavelength=706.5 nm, x1 = 0.0277",1.37183 ± 0.00032
same,refractive index,"298.15 K, Wavelength=706.5 nm, x1 = 0.0507",1.37174 ± 0.00032
same,refractive index,"298.15 K, Wavelength=706.5 nm, x1 = 0.051",1.37179 ± 0.00032
same,refractive index,"298.15 K, Wavelength=706.5 nm, x1 = 0.0717",1.37152 ± 0.00032
same,refractive index,"298.15 K, Wavelength=706.5 nm, x1 = 0.1528",1.37093 ± 0.00032
same,refractive index,"298.15 K, Wavelength=706.5 nm, x1 = 0.1553",1.37093 ± 0.00032
same,refractive index,"298.15 K, Wavelength=706.5 nm, x1 = 0.1938",1.37068 ± 0.00033
same,refractive index,"298.15 K, Wavelength=706.5 nm, x1 = 0.2029",1.37039 ± 0.00033
same,refractive index,"298.15 K, Wavelength=706.5 nm, x1 = 0.245",1.37002 ± 0.00033
same,refractive index,"298.15 K, Wavelength=706.5 nm, x1 = 0.297",1.36955 ± 0.00034
same,refractive index,"298.15 K, Wavelength=706.5 nm, x1 = 0.2973",1.3698 ± 0.00034
same,refractive index,"298.15 K, Wavelength=706.5 nm, x1 = 0.3068",1.36933 ± 0.00034
same,refractive index,"298.15 K, Wavelength=706.5 nm, x1 = 0.398",1.36819 ± 0.00035
same,refractive index,"298.15 K, Wavelength=706.5 nm, x1 = 0.4609",1.36758 ± 0.00035
same,refractive index,"298.15 K, Wavelength=706.5 nm, x1 = 0.5434",1.36678 ± 0.00036
same,refractive index,"298.15 K, Wavelength=706.5 nm, x1 = 0.6032",1.36623 ± 0.00037
same,refractive index,"298.15 K, Wavelength=706.5 nm, x1 = 0.6371",1.36587 ± 0.00038
same,refractive index,"298.15 K, Wavelength=706.5 nm, x1 = 0.701",1.36523 ± 0.00039
same,refractive index,"298.15 K, Wavelength=706.5 nm, x1 = 0.754",1.36485 ± 0.00039
same,refractive index,"298.15 K, Wavelength=706.5 nm, x1 = 0.791",1.3645 ± 0.0004
same,refractive index,"298.15 K, Wavelength=706.5 nm, x1 = 0.8296",1.36417 ± 0.00041
same,refractive index,"298.15 K, Wavelength=706.5 nm, x1 = 0.8864",1.36394 ± 0.00042
same,refractive index,"298.15 K, Wavelength=706.5 nm, x1 = 0.8903",1.36354 ± 0.00042
same,refractive index,"298.15 K, Wavelength=706.5 nm, x1 = 0.9113",1.36332 ± 0.00042
same,refractive index,"298.15 K, Wavelength=706.5 nm, x1 = 0.9547",1.36289 ± 0.00043
same,refractive index,"298.15 K, Wavelength=706.5 nm, x1 = 0.973",1.36258 ± 0.00043
same,refractive index,"298.15 K, Wavelength=706.5 nm, x1 = 0.9771",1.36281 ± 0.00043
same,refractive index,"298.15 K, Wavelength=706.5 nm, x1 = 1",1.36237 ± 0.00043
same,refractive index,"303.15 K, Wavelength=404.7 nm, x1 = 0.0277",1.38362 ± 0.00032
same,refractive index,"303.15 K, Wavelength=404.7 nm, x1 = 0.0507",1.38359 ± 0.00032
same,refractive index,"303.15 K, Wavelength=404.7 nm, x1 = 0.051",1.38351 ± 0.00032
same,refractive index,"303.15 K, Wavelength=404.7 nm, x1 = 0.0717",1.38322 ± 0.00032
same,refractive index,"303.15 K, Wavelength=404.7 nm, x1 = 0.1528",1.38258 ± 0.00032
same,refractive index,"303.15 K, Wavelength=404.7 nm, x1 = 0.1553",1.38258 ± 0.00032
same,refractive index,"303.15 K, Wavelength=404.7 nm, x1 = 0.1938",1.38229 ± 0.00033
same,refractive index,"303.15 K, Wavelength=404.7 nm, x1 = 0.2029",1.38193 ± 0.00033
same,refractive index,"303.15 K, Wavelength=404.7 nm, x1 = 0.245",1.38148 ± 0.00033
same,refractive index,"303.15 K, Wavelength=404.7 nm, x1 = 0.297",1.38091 ± 0.00034
same,refractive index,"303.15 K, Wavelength=404.7 nm, x1 = 0.2973",1.38111 ± 0.00034
same,refractive index,"303.15 K, Wavelength=404.7 nm, x1 = 0.3068",1.38076 ± 0.00034
same,refractive index,"303.15 K, Wavelength=404.7 nm, x1 = 0.398",1.37951 ± 0.00035
same,refractive index,"303.15 K, Wavelength=404.7 nm, x1 = 0.4609",1.37885 ± 0.00035
same,refractive index,"303.15 K, Wavelength=404.7 nm, x1 = 0.5434",1.37802 ± 0.00036
same,refractive index,"303.15 K, Wavelength=404.7 nm, x1 = 0.6032",1.37738 ± 0.00037
same,refractive index,"303.15 K, Wavelength=404.7 nm, x1 = 0.6371",1.37701 ± 0.00038
same,refractive index,"303.15 K, Wavelength=404.7 nm, x1 = 0.701",1.37631 ± 0.00039
same,refractive index,"303.15 K, Wavelength=404.7 nm, x1 = 0.754",1.37593 ± 0.00039
same,refractive index,"303.15 K, Wavelength=404.7 nm, x1 = 0.791",1.37553 ± 0.0004
same,refractive index,"303.15 K, Wavelength=404.7 nm, x1 = 0.8296",1.37518 ± 0.00041
same,refractive index,"303.15 K, Wavelength=404.7 nm, x1 = 0.8864",1.37495 ± 0.00042
same,refractive index,"303.15 K, Wavelength=404.7 nm, x1 = 0.8903",1.37451 ± 0.00042
same,refractive index,"303.15 K, Wavelength=404.7 nm, x1 = 0.9113",1.37428 ± 0.00042
same,refractive index,"303.15 K, Wavelength=404.7 nm, x1 = 0.9547",1.37382 ± 0.00043
same,refractive index,"303.15 K, Wavelength=404.7 nm, x1 = 0.973",1.37347 ± 0.00043
same,refractive index,"303.15 K, Wavelength=404.7 nm, x1 = 0.9771",1.37338 ± 0.00043
same,refractive index,"303.15 K, Wavelength=404.7 nm, x1 = 1",1.37321 ± 0.00044
same,refractive index,"303.15 K, Wavelength=435.8 nm, x1 = 0.0277",1.3806 ± 0.00032
same,refractive index,"303.15 K, Wavelength=435.8 nm, x1 = 0.0507",1.38056 ± 0.00032
same,refractive index,"303.15 K, Wavelength=435.8 nm, x1 = 0.051",1.38049 ± 0.00032
same,refractive index,"303.15 K, Wavelength=435.8 nm, x1 = 0.0717",1.3802 ± 0.00032
same,refractive index,"303.15 K, Wavelength=435.8 nm, x1 = 0.1528",1.37956 ± 0.00032
same,refractive index,"303.15 K, Wavelength=435.8 nm, x1 = 0.1553",1.37956 ± 0.00032
same,refractive index,"303.15 K, Wavelength=435.8 nm, x1 = 0.1938",1.37926 ± 0.00033
same,refractive index,"303.15 K, Wavelength=435.8 nm, x1 = 0.2029",1.37892 ± 0.00033
same,refractive index,"303.15 K, Wavelength=435.8 nm, x1 = 0.245",1.37846 ± 0.00033
same,refractive index,"303.15 K, Wavelength=435.8 nm, x1 = 0.297",1.37798 ± 0.00034
same,refractive index,"303.15 K, Wavelength=435.8 nm, x1 = 0.2973",1.37809 ± 0.00034
same,refractive index,"303.15 K, Wavelength=435.8 nm, x1 = 0.3068",1.37775 ± 0.00034
same,refractive index,"303.15 K, Wavelength=435.8 nm, x1 = 0.398",1.3765 ± 0.00035
same,refractive index,"303.15 K, Wavelength=435.8 nm, x1 = 0.4609",1.37585 ± 0.00035
same,refractive index,"303.15 K, Wavelength=435.8 nm, x1 = 0.5434",1.37503 ± 0.00036
same,refractive index,"303.15 K, Wavelength=435.8 nm, x1 = 0.6032",1.3744 ± 0.00037
same,refractive index,"303.15 K, Wavelength=435.8 nm, x1 = 0.6371",1.37401 ± 0.00038
same,refractive index,"303.15 K, Wavelength=435.8 nm, x1 = 0.701",1.37333 ± 0.00039
same,refractive index,"303.15 K, Wavelength=435.8 nm, x1 = 0.754",1.37295 ± 0.00039
same,refractive index,"303.15 K, Wavelength=435.8 nm, x1 = 0.791",1.37254 ± 0.0004
same,refractive index,"303.15 K, Wavelength=435.8 nm, x1 = 0.8296",1.37221 ± 0.00041
same,refractive index,"303.15 K, Wavelength=435.8 nm, x1 = 0.8864",1.37197 ± 0.00042
same,refractive index,"303.15 K, Wavelength=435.8 nm, x1 = 0.8903",1.37154 ± 0.00042
same,refractive index,"303.15 K, Wavelength=435.8 nm, x1 = 0.9113",1.37131 ± 0.00042
same,refractive index,"303.15 K, Wavelength=435.8 nm, x1 = 0.9547",1.37084 ± 0.00043
same,refractive index,"303.15 K, Wavelength=435.8 nm, x1 = 0.973",1.3705 ± 0.00043
same,refractive index,"303.15 K, Wavelength=435.8 nm, x1 = 0.9771",1.3704 ± 0.00043
same,refractive index,"303.15 K, Wavelength=435.8 nm, x1 = 1",1.37022 ± 0.00044
same,refractive index,"303.15 K, Wavelength=486.1 nm, x1 = 0.0277",1.37718 ± 0.00032
same,refractive index,"303.15 K, Wavelength=486.1 nm, x1 = 0.0507",1.37714 ± 0.00032
same,refractive index,"303.15 K, Wavelength=486.1 nm, x1 = 0.051",1.37707 ± 0.00032
same,refractive index,"303.15 K, Wavelength=486.1 nm, x1 = 0.0717",1.37678 ± 0.00032
same,refractive index,"303.15 K, Wavelength=486.1 nm, x1 = 0.1528",1.37614 ± 0.00032
same,refractive index,"303.15 K, Wavelength=486.1 nm, x1 = 0.1553",1.37614 ± 0.00032
same,refractive index,"303.15 K, Wavelength=486.1 nm, x1 = 0.1938",1.37584 ± 0.00033
